# According to US8846729B2, “2-thio-1,3,4-oxadiazoles azetidine derivatives as sphingosine-1 phosphate receptors modulators” (Allergan, Inc., priority 2012, dated 2014):
# Target: T1, human S1P1 receptor (Homo sapiens, UniProt P21453)
# T1 construct: expressed in transfected cells; membranes used
# Assay: GTP γ35S binding assay for S1P1 activity
# Type: biochemical
# Details: membranes of cells stably expressing S1P1 receptor, agonist potency
# Description: Compounds were synthesized and tested for S1P1 activity using the GTP γ^355 binding assay. These compounds may be assessed for their ability to activate or block activation of the human S1P1 receptor in cells stably expressing the S1P1 receptor.
# […] binding was measured in the medium containing (mM) HEPES 25, pH 7.4, MgCl2 10, NaCl 100, dithitothreitol 0.5, digitonin 0.003%, 0.2 nM GTP γ^35S, and 5 μg membrane protein in a volume of 150 μl. Test compounds were included in the concentration range from 0.08 to 5,000 nM unless indicated otherwise. Membranes were incubated with 100 μM 5′-adenylylimmidodiphosphate for 30 min, and subsequently with 10 μM GDP for 10 min on ice. Drug solutions and membrane were mixed, and then reactions were initiated by adding GTP γ^355 and continued for 30 min at 25° C. Reaction mixtures were filtered over Whatman GF/B filters under vacuum, and washed three times with 3 mL of ice-cold buffer (HEPES 25, pH7.4, MgCl2 10 and NaCl 100). Filters were dried and mixed with scintillant, and counted for ^35S activity using a β-counter. Agonist-induced GTP γ^355 binding was obtained by subtracting that in the absence of agonist. Binding data were analyzed using a non-linear regression method. In case of antagonist assay, the reaction mixture contained 10 nM […] in the presence of test antagonist at concentrations ranging from 0.08 to 5000 nM.
# T1 sequence (P21453 whole entry): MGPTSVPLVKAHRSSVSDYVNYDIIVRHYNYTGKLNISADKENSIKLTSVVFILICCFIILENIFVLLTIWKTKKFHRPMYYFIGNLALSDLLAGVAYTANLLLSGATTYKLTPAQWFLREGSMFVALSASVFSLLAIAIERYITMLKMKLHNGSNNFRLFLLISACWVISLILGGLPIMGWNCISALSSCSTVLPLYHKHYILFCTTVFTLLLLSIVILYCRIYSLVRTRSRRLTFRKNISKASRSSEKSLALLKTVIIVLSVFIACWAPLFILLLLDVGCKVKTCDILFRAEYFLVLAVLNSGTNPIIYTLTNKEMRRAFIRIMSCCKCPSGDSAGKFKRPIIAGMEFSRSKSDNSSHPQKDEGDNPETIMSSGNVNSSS
row,EC50 [nM],Structure (SMILES)
1,18.6,"O=C(O)C1CN(Cc2ccc(-c3nnc(SCc4cccc(Cl)c4F)o3)cc2)C1 [Compound 1, 1-(4-{5-[(3-Chloro-2-fluorobenzyl)thio]-1,3,4-oxadiazol-2-yl}benzyl)azetidine-3-carboxylic acid]"
2,16.7,"Cc1cc(CN2CC(C(=O)O)C2)ccc1-c1nnc(SC(C)c2cccc([N+](=O)[O-])c2)o1 (stereo not drawn) [Compound 2, 1-[3-Methyl-4-(5-{[1-(3-nitrophenyl)ethyl]thio}-1,3,4-oxadiazol-2-yl)benzyl]azetidine-3-carboxylic acid]"
3,60.9,"CCC(Sc1nnc(-c2ccc(CN3CC(C(=O)O)C3)cc2C)o1)c1cccc([N+](=O)[O-])c1 (stereo not drawn) [Compound 3, 1-[3-Methyl-4-(5-{[1-(3-nitrophenyl)propyl]thio}-1,3,4-oxadiazol-2-yl)benzyl]azetidine-3-carboxylic acid]"
